Data as given in PubChem BioAssay (NCI).
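Grown in 96-well plates, cells were treated for 48 hours with each compound at five concentrations. Insufficient inhibition: endpoint recorded as highest concentration tested. GI50 = concentration required for 50% inhibition of growth. TGI denotes the concentration required for complete inhibition of growth.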

Tests used:
Test in all cases: NCI anticancer screen, dose series, 48 h
OVCAR-3 ovarian = system: OVCAR-3 ovarian
CAKI-1 renal = system: CAKI-1 renal
SNB-75 CNS = system: SNB-75 CNS
SN12C renal = system: SN12C renal
SF-539 CNS = system: SF-539 CNS
MALME-3M melanoma = system: MALME-3M melanoma
786-0 renal = system: 786-0 renal
HOP-62 NSCLC = system: HOP-62 NSCLC
OVCAR-8 ovarian = system: OVCAR-8 ovarian
NCI-H23 lung = system: NCI-H23 lung
IGROV1 ovarian = system: IGROV1 ovarian
HOP-92 NSCLC = system: HOP-92 NSCLC
NCI-H226 lung = system: NCI-H226 lung
EKVX NSCLC = system: EKVX NSCLC
T-47D breast = system: T-47D breast
HCC-2998 colon = system: HCC-2998 colon
SK-OV-3 ovarian = system: SK-OV-3 ovarian
M14 melanoma = system: M14 melanoma
PC-3 prostate = system: PC-3 prostate
SF-295 CNS = system: SF-295 CNS
DU-145 prostate = system: DU-145 prostate
MDA-MB-468 breast = system: MDA-MB-468 breast
SK-MEL-5 melanoma = system: SK-MEL-5 melanoma
MCF7 breast = system: MCF7 breast
TK-10 renal = system: TK-10 renal
UO-31 renal = system: UO-31 renal
SK-MEL-28 melanoma = system: SK-MEL-28 melanoma
SNB-19 CNS = system: SNB-19 CNS
BT-549 breast = system: BT-549 breast

SMILES: CCC(C)(C)c1ccc(OCCCCCCN2CCN(c3ccncc3)CC2)cc1
- GI50 (OVCAR-3 ovarian): 3.86 µM
- TGI (OVCAR-3 ovarian): 16.2 µM
- GI50 (CAKI-1 renal): 4.97 µM
- TGI (CAKI-1 renal): 18.6 µM
- GI50 (SNB-75 CNS): 8.03 µM
- TGI (SNB-75 CNS): 22.4 µM
- GI50 (SN12C renal): 10.2 µM
- TGI (SN12C renal): 22.4 µM
- GI50 (SF-539 CNS): 1.84 µM
- TGI (SF-539 CNS): 3.91 µM
- GI50 (MALME-3M melanoma): 5.26 µM
- TGI (MALME-3M melanoma): 17.3 µM
- GI50 (786-0 renal): 1.67 µM
- TGI (786-0 renal): 3.15 µM
- GI50 (HOP-62 NSCLC): 6.77 µM
- TGI (HOP-62 NSCLC): 23.8 µM
- GI50 (OVCAR-8 ovarian): 10.2 µM
- TGI (OVCAR-8 ovarian): 30.1 µM
- GI50 (NCI-H23 lung): 3.65 µM
- TGI (NCI-H23 lung): 14 µM
- GI50 (IGROV1 ovarian): 10.8 µM
- TGI (IGROV1 ovarian): 24.4 µM
- GI50 (HOP-92 NSCLC): 2.17 µM
- TGI (HOP-92 NSCLC): 15.4 µM
- GI50 (NCI-H226 lung): 10.6 µM
- TGI (NCI-H226 lung): 23.7 µM
- GI50 (EKVX NSCLC): 4.14 µM
- TGI (EKVX NSCLC): 16.5 µM
- GI50 (T-47D breast): 2.63 µM
- TGI (T-47D breast): 8.12 µM
- GI50 (HCC-2998 colon): 1.87 µM
- TGI (HCC-2998 colon): 3.5 µM
- GI50 (SK-OV-3 ovarian): 14.4 µM
- TGI (SK-OV-3 ovarian): 29.8 µM
- GI50 (M14 melanoma): 1.58 µM
- TGI (M14 melanoma): 3.39 µM
- GI50 (PC-3 prostate): 3.63 µM
- TGI (PC-3 prostate): 16.2 µM
- GI50 (SF-295 CNS): 1.9 µM
- TGI (SF-295 CNS): 3.74 µM
- GI50 (DU-145 prostate): 5.27 µM
- TGI (DU-145 prostate): 17.6 µM
- GI50 (MDA-MB-468 breast): 1.76 µM
- TGI (MDA-MB-468 breast): 3.65 µM
- GI50 (SK-MEL-5 melanoma): 1.79 µM
- TGI (SK-MEL-5 melanoma): 3.58 µM
- GI50 (MCF7 breast): 1.73 µM
- TGI (MCF7 breast): 3.95 µM
- GI50 (TK-10 renal): 14.6 µM
- TGI (TK-10 renal): 28.7 µM
- GI50 (UO-31 renal): 10 µM
- TGI (UO-31 renal): 22.1 µM
- GI50 (SK-MEL-28 melanoma): 3.71 µM
- TGI (SK-MEL-28 melanoma): 13.3 µM
- GI50 (SNB-19 CNS): 8.19 µM
- TGI (SNB-19 CNS): 22.2 µM
- GI50 (BT-549 breast): 3.07 µM
